We go through three substances from US5100670A, “Use of a bacitracin fraction as a growth promoting agent” (Protor Co., priority 1989, dated 1992).

One data set concerns insulinase. The data set is described as follows: insulinase inhibitory activity measurement (method of Duckworth et al.). Format: biochemical. Conditions: for anti-insulinase activity: general statement in the description; for insulinase inhibitory activity: peaks from CM-Sepharose column, Example 1. On the procedure: The desired fraction is believed to have a molecular weight of about 1400, approximately the same as bacitracin A or F. Their anti-insulinase and antibacterial activities can be assayed in conventional manner. For example, the insulinase inhibitory activity was measured according to the method of Duckworth, et al., Proc. Nat. Acad. Sci., 69, 3698-3702 (1972) and the anti-bacterial activity by the method of Patrick, et al., Antibiotics and Chemotherapy, 1, 133-137 (1951).
A 350 ml bed volume cf CM-Sepharose in a packed column (2.8×56 cm) was equilibrated with 0.05M ammonium acetate, pH 4.5. One gram of commercial bacitracin dissolved in 50 ml of buffer was applied to the packed column. The material was eluted with 2 liter of equilibrating buffer followed by 350 ml of 1M ammonium acetate pH 4.5 buffer. Five ml fractions were collected and absorbance measurements at 252, 280 and 290 nm were made. In addition, insulinase inhibitory activity measurements were made on each peak. […] The peaks were collected, lyophilized, weighed and dissolved in water at 5 mg/ml concentration for specific activity measurements. The material collected with the second buffer contained 5-10% of the total weight of the applied material and 90% of the total insulinase inhibitory capacity. The specific activity of this material was 10-12 times that of the starting commercial material.

The conditions of data set [1]: by the protease insulinase; cited from earlier work.

In the case of bacitracin A, in the data set on insulinase, the anti-insulinase activity entry is recorded as “substantially no anti-insulinase activity” and the insulinase inhibitory activity result is reported as “negligible”.

As for bacitracin F, in the data set with insulinase, the anti-insulinase activity result was “substantially no anti-insulinase activity” and the insulinase inhibitory activity entry is given as “negligible”.

Turning to insulin, the “t1/2 of destruction of insulin after injection” value in data set [1] was “approximately 40 minutes”.
